The source of these data is publication PMC8698377, “In Vitro Hepatic Assessment of Cineole and Its Derivatives in Common Brushtail Possums (Trichosurus vulpecula) and Rodents” (Biology, 2021).

Where two headings read alike, the source gives them in different places. Where only a bound is given, the exact number is not on record here.

Series [1] deals with CYP3A. The series is described as follows: CYP3A catalytic activity (erythromycin-N-demethylation), rat hepatic microsomes. The format is in vitro ADME. The procedure: (§1) Microsomal preparation was as previously outlined. Individual livers were placed in beakers containing 1.15% KCl. All the procedures were carried out at 0–4 °C. The liver samples were minced and homogenised in buffer A (0.1 M Tris, 0.1 M potassium chloride, 1 mM EDTA, and 20 μM butylated hydroxytoluene, at pH = 7.4) using the Teflon-glass homogeniser (5–6 vertical passes). The samples were centrifuged for 20 min at 10,000× g. The supernatant was then transferred into another set of centrifuge tubes and spun for 60 min at 100,000× g. The pellet was resuspended in Buffer B (0.1 M potassium pyrophosphate, 1 mM EDTA, and 20 μM butylated hydroxytoluene, at pH = 7.4), homogenised and recentrifuged for 60 min at 100,000× g. Finally, the pellet was homogenised in 1–2 mL of Buffer C (10 mM Tris-HCl, 1 mM EDTA, and 4% glycerol (v/v)) and stored at […] until used. The protein concentration of the microsomes was determined using the Bicinchoninic acid (BCA) method.
(§2) CYP3A catalytic activity was determined using the erythromycin-N-demethylation activity assay as described previously. The reaction mixture (final volume of 1 mL and final protein concentration of 1 mg) contained 500 µL of microsomes in 0.1 M phosphate buffer (pH = 7.4), 400 µL of erythromycin buffer (0.45 mM), and 50 µL of the test compound was pre-warmed at 37 °C for 2 min. The reaction was initiated with 50 µL of 2.5 mM […] and incubated at 37 °C for 30 min (optimised incubation time). The reaction was stopped with the addition of 330 µL of 15% zinc sulphate. Tubes were vortexed and left for 5 min (at room temperature) and then 330 µL of saturated barium hydroxide was added. Tubes were further vortexed and left for 5 min (at room temperature). Tubes were then centrifuged at 1800 g for 10 min. To 830 µL of the supernatant, 330 µL of Nash reagent (30% (w/v) ammonium acetate, 0.4% (v/v) acetyl acetone) was added and further incubated at 60 °C for 30 min. The blank tube contained 330 µL of Nash reagent and 830 µL of Milli-Q-water. The tubes were centrifuged again at 1800× g for 10 min and the absorbance was read at 415 nm. Results presented are the mean ± SEM of 3 independent experiments conducted in duplicate.

Series [2] deals with UGT. The series is described as follows: p-nitrophenol glucuronidation, possum hepatic microsomes. The format is in vitro ADME, possum (Trichosurus vulpecula). The method, then: as §1
(§3) The rate of p-nitrophenol glucuronidation was determined as previously reported. In short, the incubation mixture (500 µL in total) contained; 100 µL of 1 mg/mL microsomes, 50 µL of 1 M Tris-HCl (pH = 7.4), 20 µL of 0.25% (v/v) Triton-X 100, 50 µL of 50 mM MgCl2, 130 µL of double distilled water, 50 µL of 5 mM p-nitrophenol, 50 µL of the test compound, and 50 µL of uridine 5′-diphosphoglucuronic acid trisodium salt (UDPGA). The blank tubes had all components except UDPGA and microsomes; instead, 150 µL of 0.1 M phosphate buffer was added to equal the volume as the reaction mixture. The reaction mixture and the blank were incubated at 37 °C for 2 min. Then, 50 µL of 30 mM UDPGA was added to initiate the reaction which proceeded at 37 °C for 30 min (optimised incubation time). The reaction was stopped using 1 mL of 5% trichloroacetic acid (TCA). The tubes were centrifuged at 1800 g for 10 min and then 1 mL of supernatant was added to 250 µL of 2 M sodium hydroxide (NaOH). The absorbance was read at 405 nm. The sample reading was subtracted from the blank absorbance and divided by the extinction coefficient of p-nitrophenol ([…]) and the light path of the spectrophotometer (1 cm). The glucuronidation activities are expressed in µmol/mg/min and are the mean ± SEM of 3 independent experiments conducted in duplicate.

The subject of a further series is possums. Set-up: method as in doi:10.1023/A:1020863216892. Conditions: cited from earlier work.
For a further series, the system named is dogs. The note with it: cited from earlier work.
A further series concerns rats. Set-up: method as in PMID 6068552. The note with it: cited from earlier work.
Series [3] deals with CYP enzymes (preferably CYP3A). More on the design: method as in PMID 11465406. The note with it: possums; cited from earlier work.
For the next series, the system named is mice. Set-up: method as in earlier work. The note with it: cited from earlier work.
Series [4] has as its system CYP3A. As to the kind of experiment: CYP3A catalytic activity (erythromycin-N-demethylation), mouse hepatic microsomes. The format is in vitro ADME. The method, then:
as §1, §2

For series [5], the system named is UGT. As to the kind of experiment: p-nitrophenol glucuronidation, mouse hepatic microsomes. The format is in vitro ADME. The procedure: as §1, §3
In the next series the test system is humans. Set-up: method as in PMID 7651249. Conditions: cited from earlier work.
For series [6], the system named is CYP3A. The series is described as follows: CYP3A catalytic activity (erythromycin-N-demethylation), possum hepatic microsomes. The format is in vitro ADME, possum (Trichosurus vulpecula). The procedure:
as §1, §2

Series [7] deals with UGT. The series is described as follows: p-nitrophenol glucuronidation, rat hepatic microsomes. The format is in vitro ADME. The procedure:
as §1, §3

In series [8] the test system is CYP3A. More on the design: method as in PMID 12593759. Conditions: possums, ketoconazole 5 µM, cited from earlier work.
Series [9] deals with CYP3A. Set-up: method as in PMID 12593759. Conditions: rats, ketoconazole; cited from earlier work.
[10] abbreviates: liver microsomes, pH 7.4, probe erythromycin, 12.5 µM, read-out: CYP3A catalytic activity, % of Control.
Where [11] appears, read: liver microsomes, pH 7.4, probe erythromycin, 25 µM, read-out: CYP3A catalytic activity, % of Control.

In the case of `CC12CCC(CC1)C(C)(C)O2` [Cineole, 1,3,3-trimethyl-2-oxabicyclo [2.2.2]octane], the CYP3A catalytic activity in the series on CYP3A [1] (12.5 µM) amounted to 0.64 ± 0.05 nmol/mg/min; in the series with CYP3A [1] (25 µM) it was 0.65 ± 0.05 nmol/mg/min; in the series with CYP3A [4] (12.5 µM), 0.68 ± 0.02 nmol/mg/min; in the series with CYP3A [4] (25 µM) it was 0.64 ± 0.02 nmol/mg/min; in the series with CYP3A [6] (12.5 µM), 0.40 ± 0.01 nmol/mg/min; in the series on CYP3A [6] (25 µM) it was 0.41 ± 0.01 nmol/mg/min. The “inhibition of CYP3A catalytic activity” value in the series on CYP3A [1] (50 µM) and with CYP3A [6] (50 µM) was “no major inhibition” throughout. Besides, the activity at 30 min, 12.5 µM turned out to be 101 ± 2.31% in the series on CYP3A [1] (setting [10]); 101 ± 2.93% in the series with CYP3A [4] (setting [10]); 99.5 ± 2.67% in the series with CYP3A [6] (possum (Trichosurus vulpecula), liver microsomes, pH 7.4, probe erythromycin, 12.5 µM, read-out: CYP3A catalytic activity, % of Control). Moreover, the activity at 30 min, 25 µM is 101 ± 1.62% with CYP3A [1] (setting [11]); 94.5 ± 2.69% in the series with CYP3A [4] (setting [11]); 101.9 ± 0.29% with CYP3A [6] (possum (Trichosurus vulpecula), liver microsomes, pH 7.4, probe erythromycin, 25 µM, read-out: CYP3A catalytic activity, % of Control). The p-nitrophenol glucuronidation activity amounted to 4.09 ± 0.18 µmol/mg/min in the series with UGT [2] (12.5 µM); 4.18 ± 0.13 µmol/mg/min in the series with UGT [2] (25 µM); 2.00 ± 0.16 µmol/mg/min in the series with UGT [5] (12.5 µM); 1.90 ± 0.16 µmol/mg/min in the series on UGT [5] (25 µM); 2.46 ± 0.12 µmol/mg/min in the series with UGT [7] (12.5 µM); 2.67 ± 0.21 µmol/mg/min in the series with UGT [7] (25 µM). Besides, the “p-nitrophenol glucuronidation, % of Control” value in the series with UGT [2] (12.5 µM) amounted to 99.39 ± 1.71%; in the series with UGT [2] (25 µM) it was 101.80 ± 1.12%; in the series on UGT [5] (12.5 µM) it was 100.36 ± 1.99%; in the series on UGT [5] (25 µM) it was 94.21 ± 1.51%; in the series on UGT [7] (12.5 µM) it was 90.25 ± 6.49%; with UGT [7] (25 µM) it was 98.18 ± 9.75%. Moreover, the “inhibition of p-nitrophenol glucuronidation” value in the series on UGT [2] (50 µM), in the series on UGT [5] (50 µM) and in the series with UGT [7] (50 µM) was “failed to significantly inhibit” each time. Also, the “toxic dose following ingestion” value in the series with possums was 3600 mg/kg; in the series with dogs it was 1500 mg/kg; with rats, 2500 mg/kg; in the series on mice, 50 mg/kg; in the series with humans it was below 1000 mg/kg. Also, the “share of total intrinsic clearance, 3-hydroxycineole” value in series [3] is 14%. In addition, the “share of total intrinsic clearance, 7-hydroxycineole” value in series [3] is 11%. The “share of total intrinsic clearance, conversion to 9-hydroxycineole” value in series [3] is recorded as 75%. Further, in the series on CYP3A [4] (liver microsomes, pH 7.4, probe erythromycin, 50 µM, read-out: CYP3A catalytic activity, % of control), the activity at 30 min, 50 µM worked out at 89.3%.
As to `CC(=O)N1CCN(c2ccc(OCC3COC(Cn4ccnc4)(c4ccc(Cl)cc4Cl)O3)cc2)CC1` (centres unmarked) [Ketoconazole, ketoconazole], the “reduction of the formation of 9-hydroxycineole” value in the series on CYP3A [8] (cineole concentration 10 µM) is 15%; with CYP3A [8] (cineole concentration 100 µM), 30%. For the same compound, in the series with CYP3A [9], the “reduction of the metabolite formation” value is on record as 85%.
